# According to patent US9045525B2, “Amyloid β-protein-specific production-inhibiting polypeptide” (THE DOSHISHA, priority 2012, dated 2015):
# “Also recorded” adds a separate entry of the source.
# Tests used:
# [1] = biological target: β-secretase against APP (APP-EQ-FLAG) (Homo sapiens, UniProt P05067); assay: β-Secretase activity inhibition experiment in vitro, APP-EQ-FLAG substrate; assay type: biochemical; conditions: polypeptide 1, 5, 10, 20, 50, and 100 μM
# Experimental: A solution containing the polypeptide having APP (APP-EQ-FLAG: SEQ ID NO: 18) as shown in FIG. 5(A) was prepared in such a manner that its final concentration was 50 nM.
# To this solution, 9-7 polypeptide, 6-5 polypeptide, #1 polypeptide, #2 polypeptide, #3 polypeptide, #4 polypeptide, #5 polypeptide, #6 polypeptide, #7 polypeptide, #8 polypeptide, #9 polypeptide, and #10 polypeptide were added in such a manner that each solution had the final concentration of 50 μM, followed by reacting with 50 μL β-secretase (0.02 U/μL) for 4 hours. The reaction temperature was 37° C. As a negative control experiment, DMSO was used in place of the 12 types of polypeptides mentioned above.
# After completion of the reaction, each sample was subjected to Western blotting using a monoclonal antibody (82E-1) that specifically recognizes the N terminal of APP-EQ-FLAG as shown in FIG. 5(A). Thereafter, the amount of Aβ33-FLAG protein separated by β-secretase was measured.
# An experiment was conducted in the same manner as Experimental Example 4 described above except that S4 and #4 polypeptides were used as the polypeptide and the amounts of these polypeptides added were adjusted so that the final concentrations were 1, 5, 10, 20, 50, and 100 μM.
# [2] = test system: sialyltransferase (st6gal), substrate of β-secretase, in 7WD10 cells; assay: Cleavage of sialyltransferase (st6gal) in 7WD10 cells; assay type: cell-based; conditions: polypeptide 25 μM and 50 μM
# Experimental: An experiment was conducted in the same manner as Experimental Example 6 except that only S4 polypeptide was used as the polypeptide; the S4 polypeptide was added to have the final concentrations of 25 μM and 50 μM; the cell used in this experiment was CHO-K1 cell (7WD10 cell) that expressed APP protein and transiently expressed Notch and sialyltransferase (st6gal), which is the substrate of β-secretase; and confirmation of cleavage by sialyltransferase was conducted in addition to the confirmation of the production of Aβ protein and cleavage of Notch protein.
# [3] = biological target: γ-secretase against Notch (Mus musculus, UniProt Q01705, V1997L); assay: γ-Secretase activity inhibition experiment in vitro, Notch-FLAG substrate; assay type: biochemical; conditions: polypeptide 1, 5, 10, 20, and 50 μM
# Chain of γ-secretase against Notch (Q01705 with tags, fused parts or gaps V1997L): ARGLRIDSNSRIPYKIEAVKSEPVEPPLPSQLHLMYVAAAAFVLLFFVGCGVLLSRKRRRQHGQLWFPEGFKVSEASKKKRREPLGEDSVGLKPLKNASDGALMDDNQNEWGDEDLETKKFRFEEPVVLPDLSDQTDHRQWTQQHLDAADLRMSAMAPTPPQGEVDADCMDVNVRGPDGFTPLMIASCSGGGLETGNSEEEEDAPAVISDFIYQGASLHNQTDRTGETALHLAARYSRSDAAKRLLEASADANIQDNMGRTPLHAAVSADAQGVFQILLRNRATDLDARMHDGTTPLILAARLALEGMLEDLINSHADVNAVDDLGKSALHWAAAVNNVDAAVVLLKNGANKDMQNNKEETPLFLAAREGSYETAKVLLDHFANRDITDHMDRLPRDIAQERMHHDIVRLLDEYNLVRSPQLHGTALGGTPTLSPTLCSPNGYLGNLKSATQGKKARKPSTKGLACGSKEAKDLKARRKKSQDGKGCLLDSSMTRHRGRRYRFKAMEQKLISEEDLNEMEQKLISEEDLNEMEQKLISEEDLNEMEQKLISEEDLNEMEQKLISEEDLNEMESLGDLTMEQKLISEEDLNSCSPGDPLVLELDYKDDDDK
# Experimental: (§1) A polypeptide having βCTF (C99-FLAG: SEQ ID NO: 16) and mouse-derived Notch protein having a FLAG peptide at the C-terminal side (modification of NCBI Accession No. Q01705.2; SEQ ID NO: 17; hereunder referred to as “Notch”) shown in FIG. 2(A) were each made into a solution having a final concentration of 50 nM.
# (§2) To these solutions, 9-7 polypeptide, 6-5 polypeptide, #1 polypeptide, #2 polypeptide, #3 polypeptide, and #4 polypeptide were added in such a manner that the final concentrations were 50 μM, followed by reacting with 50 μL of CHAPSO-solubilized membrane fraction (γ-secretase-containing fraction) for 4 hours. The reaction temperature was 37° C. As a negative control experiment, DMSO was used in place of the six types of polypeptides described above.
# (§3) Each sample after completion of the reaction was measured in the following manner. As shown in FIG. 2(A), a sample using C99-FLAG was subjected to Western blotting using a monoclonal antibody (82E-1) that specifically recognizes the N terminal of C99-FLAG, and the amount of Aβ40 protein produced by the cleavarage by γ-secretase was measured. In contrast, the reaction sample using Notch-FLAG was subjected to Western blotting using an anti-FLAG monoclonal antibody, and the amount of NICD produced to the separete by γ-secretase was also measured. FIG. 2(B) and FIG. 2(C) show the results.
# (§4) An experiment was conducted in the same manner as in Experimental Example 1 described above, except that only #1 polypeptide was used and the amount of #1 polypeptide was selected so that the final concentrations were 0.5, 1, 5, 10, 20, and 50 μM.
# (§5) An experiment was conducted in the same manner as in Experimental Example 1 described above, except that S4 polypeptide was used as the polypeptide, and each addition amount was set in such a manner that the final concentrations were 1, 5, 10, 20, and 50 μM. In this Experimental Example, #4 polypeptide was added in such a manner that the final result was 50 μM.
# [4] = biological target: γ-secretase against βCTF (C99-FLAG) (Homo sapiens, UniProt P05067); assay: γ-Secretase activity inhibition experiment in vitro, C99-FLAG substrate; assay type: biochemical; conditions: polypeptide 1, 5, 10, 20, and 50 μM
# Chain of γ-secretase against βCTF (C99-FLAG) (P05067 with tags, fused parts or gaps): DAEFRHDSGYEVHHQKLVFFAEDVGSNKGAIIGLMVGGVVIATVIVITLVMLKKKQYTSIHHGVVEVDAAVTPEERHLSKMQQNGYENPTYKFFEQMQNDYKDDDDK
# Experimental: as §1, §2, §3, §4, §5
# [5] = test system: CHO-K1 cells (7WD10 cells) that stably expressed APP protein; assay: Aβ protein production inhibition experiment in 7WD10 cells (sAPPβ, βCTF, Aβ); assay type: cell-based; conditions: polypeptide 25 μM and 50 μM; cells also expressing st6gal
# Experimental: (§6) An experiment was conducted wherein #1, #2, and #4 polypeptides were reacted with CHO-K1 cells (7WD10 cells) that stably expressed APP protein and transiently expressed Notch to confirm the production of Aβ protein and cleavage of Notch protein.
# [6] = test system: Notch transiently expressed in CHO-K1 cells (7WD10 cells); assay: Cleavage of Notch protein (NICD) in 7WD10 cells; assay type: cell-based; conditions: polypeptide 25 μM and 50 μM; cells also expressing st6gal
# Experimental: as §6
# Chain of β-secretase against APP (APP-EQ-FLAG) (P05067 with tags, fused parts or gaps): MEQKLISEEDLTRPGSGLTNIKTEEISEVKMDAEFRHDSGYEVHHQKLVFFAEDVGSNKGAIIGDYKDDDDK
sequence,measurement,setting,value
FGBTWDYWVYR [S4],cleavage activity of β-secretase against APP,[1],"inhibited the cleavage activity of β-secretase against APP, although inferior to #4 polypeptide; also recorded: inhibited the cleavage activity of β-secretase against APP in a concentration-dependent manner"
same,st6gal production amount in the cell culture medium,[2],not decreased
same,cleavage activity of γ-secretase against Notch (NICD),[3],not inhibited
same,cleavage activity of γ-secretase against βCTF,[4],inhibits more intensely in a concentration-dependent manner the cleavage activity of γ-secretase against βCTF
same,Aβ protein (intracellular Aβ) in the cell lysate,[5],decreased
same,amount of Aβ protein (released Aβ) in the cell culture medium,[5],reduced
same,sAPPβ production amount in the cell culture medium,[5],reduced
same,amount of NICD in the cell lysate,[6],did not decrease
